Patent US20180170941A1 (priority 2016, published 2018)

molecular target: T1, α5β3γ2 GABAA receptors (Ltk cell membranes) (Homo sapiens, UniProt P18507+P31644); assay: Binding activity of test compounds on GABAAR: inhibition of [3H]Ro15-1788 binding; conditions: not given
T1 construct: membranes
Description: Tissue culture and Membrane Preparation: The binding was performed on Ltk cells stably expressing GABAA receptors: α1β1γ2, α2β3γ2, α3β3γ2 and α5β3γ2 (provided by Merck Co., NJ, USA). Cells were seeded in 100 mm culture plates in DMEM/F12 medium containing 10% serum and antibiotics in 5% CO2 and allowed to grow for 1-2 days. GABAAR expression was then induced by dexamethasone as follows: 0.5 μM for 1 day for α5 containing and 2μM for 3 days for α1, α2 and α3 containing GABAARs. After induction, cells were collected by scraping into Dulbecco's Phosphate buffered saline (DPBS, pH 7.4, Invitrogen, Carlsbad, Calif., USA) and centrifuged at 150×g for 10 min. The pellet was washed twice by re-suspension and centrifugation. The cell pellets from at least 5 different preps were combined, suspended in the binding assay buffer (50 mM KH2P4; 1 mM EDTA; 0.2 M KCl, pH 7.4) and membranes prepared by sonication (3-5 times, 30 sec) using Branson Sonifier 150 (G.Heinmann, Germany). Protein content was determined using BCA assay (Bio-Rad Labs, Reinach, Switzerland) with Bovine Serum Albumin (Sigma Aldrich, St. Louis, Mo., USA) as the standard. Aliquots were prepared and stored at −20° C. for further use in binding assays.
Ligand Binding: Saturation binding curves were obtained by incubating membranes with increasing concentrations (0.01-8 nM) of [^3H]Ro15-1788 (Flumazepil, 75-85 Ci/mmol, PerkinElmer, MA, USA), with nonspecific binding measured in the presence of 10 μM diazepam.
All binding assays were performed for 1 h at 4° C. in assay buffer. The total assay volume was 0.5 ml containing 0.2 mg/ml protein for α5 and 0.4 mg/ml for α1, α2, and α3 containing GABAAR membranes. Incubations were terminated by filtration through GF/B filters using a 24-Cell Harvestor (Brandel, Gaithersburg, Md., USA) followed by 3 washes with ice-cold assay buffer. Filters were transferred to scintillation vials, 5 ml scintillation liquid added, vortex-mixed and kept in dark. Next day, radioactivity was obtained using a scintillation counter (Beckman Coulter, Brea, Calif., USA). All assays were performed in triplicate.
Data Analyses: Saturation and inhibition curves were obtained using GraphPad Prism software (GraphPad Software, Inc., CA, USA).

T1 sequence (P31644 32-462): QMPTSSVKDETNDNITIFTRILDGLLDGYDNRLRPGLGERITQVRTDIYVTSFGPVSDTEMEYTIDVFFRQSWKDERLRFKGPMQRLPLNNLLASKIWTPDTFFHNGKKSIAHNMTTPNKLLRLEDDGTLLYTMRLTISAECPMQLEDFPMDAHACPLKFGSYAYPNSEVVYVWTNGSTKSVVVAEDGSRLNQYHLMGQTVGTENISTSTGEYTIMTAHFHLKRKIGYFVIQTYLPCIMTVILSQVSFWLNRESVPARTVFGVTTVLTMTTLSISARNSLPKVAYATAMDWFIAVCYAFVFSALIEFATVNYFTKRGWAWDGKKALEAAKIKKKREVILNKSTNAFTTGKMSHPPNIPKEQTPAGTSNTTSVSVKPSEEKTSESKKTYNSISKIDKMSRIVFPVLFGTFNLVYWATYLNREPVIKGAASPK
T1 sequence (P28472 26-473 partner): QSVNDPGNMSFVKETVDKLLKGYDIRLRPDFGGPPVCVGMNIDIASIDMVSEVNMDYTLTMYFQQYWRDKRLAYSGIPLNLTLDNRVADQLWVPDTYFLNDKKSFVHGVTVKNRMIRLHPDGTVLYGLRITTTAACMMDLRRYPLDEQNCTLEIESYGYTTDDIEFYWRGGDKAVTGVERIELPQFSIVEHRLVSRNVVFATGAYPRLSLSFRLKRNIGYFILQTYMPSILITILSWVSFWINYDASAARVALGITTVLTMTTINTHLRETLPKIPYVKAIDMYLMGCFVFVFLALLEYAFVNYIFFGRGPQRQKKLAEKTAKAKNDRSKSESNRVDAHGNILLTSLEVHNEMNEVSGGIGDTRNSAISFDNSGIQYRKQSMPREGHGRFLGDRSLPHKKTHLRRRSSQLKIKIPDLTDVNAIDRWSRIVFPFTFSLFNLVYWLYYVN
T1 sequence (P18507 40-475): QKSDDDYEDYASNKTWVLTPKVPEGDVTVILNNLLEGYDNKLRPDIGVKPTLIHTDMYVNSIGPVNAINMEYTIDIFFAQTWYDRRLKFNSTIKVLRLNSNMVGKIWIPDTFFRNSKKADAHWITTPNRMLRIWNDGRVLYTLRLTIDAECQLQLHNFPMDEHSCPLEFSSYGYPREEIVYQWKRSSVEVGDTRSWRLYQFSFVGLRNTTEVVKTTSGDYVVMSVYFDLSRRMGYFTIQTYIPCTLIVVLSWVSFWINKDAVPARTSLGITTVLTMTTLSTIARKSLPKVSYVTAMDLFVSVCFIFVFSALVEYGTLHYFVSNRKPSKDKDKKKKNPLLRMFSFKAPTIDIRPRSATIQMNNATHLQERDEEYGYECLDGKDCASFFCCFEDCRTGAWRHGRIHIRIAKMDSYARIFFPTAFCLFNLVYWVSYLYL

| Compound | Ki |
| --- | --- |
| COc1ccc2c(c1)-c1nnc(COc3ccccc3C(C)(C)C)n1Cc1c(C#N)ncn1-2 [Compound 192] | > 1000 nM |
| COc1ccc2c(c1)-c1nnc(COc3ccccc3C(F)(F)F)n1Cc1c(C#N)ncn1-2 [Compound 193] | > 1000 nM |
| Clc1ccc2c(c1)-c1nnc(COc3ccccc3)n1Cc1c(C3OCCO3)ncn1-2 [Compound 204] | > 1000 nM |
| COCc1nnc2n1Cc1c(C3=NCC(C)(C)CO3)ncn1-c1ccc(Cl)cc1-2 [Compound 239] | > 1000 nM |

same assay, conditions: GABA α5 Binding Ki Values, inhibition of [3H]Ro15-1788 binding; reported as ranges

| Compound | Ki |
| --- | --- |
| COc1ccc2c(c1)-c1nnc(COCc3cccc(F)c3)n1Cc1c(-c3noc(C(C)C)n3)ncn1-2 [Compound 183] | < 100 nM |
| COc1ccc2c(c1)-c1nnc(COCc3ccccc3F)n1Cc1c(-c3noc(C(C)C)n3)ncn1-2 [Compound 184] | < 100 nM |
| CC(C)c1nc(-c2ncn3c2Cn2c(COc4cccnc4)nnc2-c2cc(F)ccc2-3)no1 [Compound 185] | < 100 nM |
| COCc1nnc2n1Cc1c(-c3noc(C(C)C)n3)ncn1-c1ccc(F)cc1-2 [Compound 186] | < 100 nM |
| CCOCc1nnc2n1Cc1c(-c3noc(C(C)C)n3)ncn1-c1ccc(F)cc1-2 [Compound 187] | < 100 nM |
| CC(C)c1nc(-c2ncn3c2Cn2c(COc4cccc(F)c4)nnc2-c2cc(F)ccc2-3)no1 [Compound 188] | < 100 nM |
| CC(C)c1nc(-c2ncn3c2Cn2c(COc4ccc(F)cc4)nnc2-c2cc(F)ccc2-3)no1 [Compound 189] | < 100 nM |
| Cc1cccc(C)c1OCc1nnc2n1Cc1c(-c3noc(C(C)C)n3)ncn1-c1ccc(F)cc1-2 [Compound 190] | < 100 nM |
| COc1ccc2c(c1)-c1nnc(COc3ccc(F)cc3)n1Cc1c(C#N)ncn1-2 [Compound 191] | 100 to 1000 nM |
| CCc1nc(-c2ncn3c2Cc2c(Cc4ccccc4)nnn2-c2cc(OC)ccc2-3)no1 [Compound 194] | < 100 nM |
| CCc1nc(-c2ncn3c2Cc2c(Cc4ccc(F)cc4)nnn2-c2cc(OC)ccc2-3)no1 [Compound 195] | < 100 nM |
| COc1ccc2c(c1)-c1nnc(COc3cccc(F)c3)n1Cc1c(C#N)ncn1-2 [Compound 196] | < 100 nM |
| N#Cc1ncn2c1Cn1c(COc3ccccc3)nnc1-c1cc(Cl)ccc1-2 [Compound 197] | < 100 nM |
| COCc1nnc2n1Cc1c(-c3nc(C)no3)ncn1-c1ccc(Cl)cc1-2 [Compound 198] | < 100 nM |
| FC(F)=Cc1ncn2c1Cn1c(COc3ccccc3)nnc1-c1cc(Cl)ccc1-2 [Compound 199] | < 100 nM |
| FC(F)c1ncn2c1Cn1c(COc3ccccc3)nnc1-c1cc(Cl)ccc1-2 [Compound 200] | 100 to 1000 nM |
| COc1ccc2c(c1)-c1nnc(COC(C)(C)C)n1Cc1c(-c3noc(C(C)C)n3)ncn1-2 [Compound 201] | 100 to 1000 nM |
| Clc1ccc2c(c1)-c1nnc(COc3ccccc3)n1Cc1c(Br)ncn1-2 [Compound 202] | < 100 nM |
| COc1ccc2c(c1)-c1nnc(COCc3cccnc3)n1Cc1c(-c3noc(C(C)C)n3)ncn1-2 [Compound 203] | < 100 nM |
| C#Cc1ncn2c1Cn1c(COc3ccccc3)nnc1-c1cc(Cl)ccc1-2 [Compound 205] | < 100 nM |
| COCc1nnc2n1Cc1c(-c3nc(C(C)C)no3)ncn1-c1ccc(Cl)cc1-2 [Compound 206] | < 100 nM |
| COc1ccc2c(c1)-n1nnc(Cc3ccccc3)c1Cc1c(C#N)ncn1-2 [Compound 207] | < 100 nM |

| Compound | Ki |
| --- | --- |
| COc1ccc2c(c1)-n1nnc(Cc3ccccc3Cl)c1Cc1c(C#N)ncn1-2 [Compound 208] | < 100 nM |
| COc1ccc2c(c1)-n1nnc(Cc3cccc(Cl)c3)c1Cc1c(C#N)ncn1-2 [Compound 209] | < 100 nM |
| COc1ccc2c(c1)-n1nnc(Cc3cccnc3)c1Cc1c(C#N)ncn1-2 [Compound 210] | < 100 nM |
| CCOCc1nnc2n1Cc1c(Br)ncn1-c1ccc(Cl)cc1-2 [Compound 216] | < 100 nM |
| COCc1nnc2n1Cc1c(Br)ncn1-c1ccc(Cl)cc1-2 [Compound 217] | < 100 nM |
| C#Cc1ncn2c1Cc1c(C(=O)c3ccc(F)cc3)nnn1-c1cc(OC)ccc1-2 [Compound 218] | < 100 nM |
| C#Cc1ncn2c1Cc1c(C(=O)c3ccc(Cl)cc3)nnn1-c1cc(OC)ccc1-2 [Compound 219] | 100 to 1000 nM |
| C=Cc1ncn2c1Cc1c(Cc3ccccc3)nnn1-c1cc(OC)ccc1-2 [Compound 220] | 100 to 1000 nM |
| C=Cc1ncn2c1Cc1c(Cc3ccc(C)cc3)nnn1-c1cc(OC)ccc1-2 [Compound 221] | > 1000 nM |
| COc1ccc2c(c1)-n1nnc(COc3ccc(F)cc3)c1Cc1c(C#N)ncn1-2 [Compound 222] | < 100 nM |
| COc1ccc2c(c1)-n1nnc(COc3ccccc3F)c1Cc1c(C#N)ncn1-2 [Compound 223] | < 100 nM |
| COc1ccc2c(c1)-n1nnc(COc3ccccc3)c1Cc1c(C#N)ncn1-2 [Compound 224] | < 100 nM |
| COc1ccc2c(c1)-n1nnc(COc3cccc(Br)c3)c1Cc1c(C#N)ncn1-2 [Compound 225] | < 100 nM |
| N#Cc1ncn2c1Cc1c(COc3ccccc3)nnn1-c1cc(Cl)ccc1-2 [Compound 226] | < 100 nM |
| N#Cc1ncn2c1Cc1c(COc3cccc(F)c3)nnn1-c1cc(Cl)ccc1-2 [Compound 227] | < 100 nM |
| Fc1ccc2c(c1)-n1cnc(Br)c1Cc1c(Cc3ccccc3)nnn1-2 [Compound 229] | > 1000 nM |
| CC(C)c1nc(-c2ncn3c2Cc2c(C(=O)c4ccc(F)cc4)nnn2-c2ccc(F)cc2-3)no1 [Compound 230] | < 100 nM |
| CC(C)c1nc(-c2ncn3c2Cc2c(Cc4ccc(F)cc4)nnn2-c2ccc(F)cc2-3)no1 [Compound 231] | > 1000 nM |
| COc1ccc2c(c1)-c1nnc(COc3ccccc3)n1Cc1c(Br)ncn1-2 [Compound 232] | < 100 nM |
| COCc1nnc2n1Cc1c(-c3cc(C)no3)ncn1-c1ccc(Cl)cc1-2 [Compound 233] | < 100 nM |
| COc1ccc2c(c1)-c1nnc(COc3cccnc3)n1Cc1c(Br)ncn1-2 [Compound 235] | < 100 nM |
| C#Cc1ncn2c1Cn1c(COc3ccccc3)nnc1-c1cc(OC)ccc1-2 [Compound 236] | < 100 nM |

| Compound | Ki |
| --- | --- |
| COCc1nnc2n1Cc1c(C3=NCCCO3)ncn1-c1ccc(Cl)cc1-2 [Compound 237] | 100 to 1000 nM |
| COCc1nnc2n1Cc1c(C3=NCCO3)ncn1-c1ccc(Cl)cc1-2 [Compound 238] | < 100 nM |
| COCc1nnc2n1Cc1c(C3=N[C@@H](C(C)C)CO3)ncn1-c1ccc(Cl)cc1-2 [Compound 240] | 100 to 1000 nM |
| C#Cc1ncn2c1Cn1c(COc3cccnc3)nnc1-c1cc(OC)ccc1-2 [Compound 241] | < 100 nM |
| COCc1nnc2n1Cc1c(C3=NC(c4ccccc4)CO3)ncn1-c1ccc(Cl)cc1-2 (stereo not shown) [Compound 242] | < 100 nM |
| COCc1nnc2n1Cc1c(-c3nc(C)co3)ncn1-c1ccc(Cl)cc1-2 [Compound 244] | < 100 nM |
| COCc1nnc2n1Cc1c(-c3nc(-c4ccccc4)co3)ncn1-c1ccc(Cl)cc1-2 [Compound 245] | < 100 nM |
| COCc1nnc2n1Cc1c(-c3nc(C(C)C)co3)ncn1-c1ccc(Cl)cc1-2 [Compound 246] | 100 to 1000 nM |
| CNC(=O)c1nnn2c1Cc1c(Br)ncn1-c1ccc(OC)cc1-2 [Compound 247] | 100 to 1000 nM |
| COc1ccc2c(c1)-n1nnc(C(=O)N3CCCC3)c1Cc1c(Br)ncn1-2 [Compound 248] | 100 to 1000 nM |
| COCc1nnc2n1Cc1c(-c3ncco3)ncn1-c1ccc(Cl)cc1-2 [Compound 249] | < 100 nM |
| COc1ccc2c(c1)-n1nnc(CN3CCCC3)c1Cc1c(C#N)ncn1-2 [Compound 250] | > 1000 nM |
| COc1ccc2c(c1)-n1nnc(CN3CCCCC3)c1Cc1c(C#N)ncn1-2 [Compound 251] | > 1000 nM |
| CCN(CC)Cc1nnn2c1Cc1c(C#N)ncn1-c1ccc(OC)cc1-2 [Compound 252] | > 1000 nM |
| COc1ccc2c(c1)-n1nnc(CN3CCC(c4ccccc4)CC3)c1Cc1c(C#N)ncn1-2 [Compound 253] | > 1000 nM |
| CCOCc1nnc2n1Cc1c(-c3nc(C(C)C)no3)ncn1-c1ccc(Cl)cc1-2 [Compound 254] | < 100 nM |
| CCOCc1nnc2n1Cc1c(-c3nc(C)no3)ncn1-c1ccc(Cl)cc1-2 [Compound 255] | < 100 nM |
| C#Cc1ncn2c1Cn1c(COC)nnc1-c1cc(Cl)ccc1-2 [Compound 256] | < 100 nM |
| COc1ccc2c(c1)-n1nncc1Cc1c(-c3nc(C(C)C)no3)ncn1-2 [Compound 257] | < 100 nM |
| COc1ccc2c(c1)-n1nncc1Cc1c(-c3nc(C)no3)ncn1-2 [Compound 258] | < 100 nM |
| CCOCc1nnc2n1Cc1c(C3=NC(C)CO3)ncn1-c1ccc(Cl)cc1-2 (stereo not shown) [Compound 259] | < 100 nM |
| CCOCc1nnc2n1Cc1c(C3=NC(c4ccccc4)CO3)ncn1-c1ccc(Cl)cc1-2 (stereo not shown) [Compound 260] | < 100 nM |
